Experimental data taken from patent US9199984B2, “Inhibition of enzymes” (CHIESI FARMACEUTICI S.p.A., priority 2012, dated 2015).
Structures can show the parent of a compound that is named as a salt.

What follows are molecules tested against T1, human neutrophil elastase (HNE) (Homo sapiens, UniProt P08246) (assay: HNE enzyme activity assay). Conditions: human leukocyte elastase, substrate MeOSuc-Ala-Ala-Pro-Val-AMC 100 μM, 25° C. for 30 minutes, fluorescence; read-out: HNE inhibition.
T1 construct: purchased Sigma E8140
T1 sequence (P08246 30-247 limits assumed): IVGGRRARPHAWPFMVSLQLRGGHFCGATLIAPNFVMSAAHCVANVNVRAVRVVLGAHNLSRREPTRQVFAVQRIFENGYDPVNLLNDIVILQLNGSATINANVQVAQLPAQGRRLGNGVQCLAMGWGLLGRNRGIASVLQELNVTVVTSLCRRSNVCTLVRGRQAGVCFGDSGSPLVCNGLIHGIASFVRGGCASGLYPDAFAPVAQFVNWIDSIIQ
Type: biochemical
Experimental: Compounds of the present invention were tested for potency in a human neutrophil elastase (HNE) enzyme activity assay.
Assays were performed in 96-well plates in a total assay volume of 100 μl. The final concentration of elastase enzyme (human leukocyte elastase, Sigma E8140) was 0.0036 units/well […]. The peptide substrate (MeOSuc-Ala-Ala-Pro-Val-AMC, Calbiochem #324740) was used at a final concentration of 100 μM. The final concentration of DMSO was 1% in the assay buffer (0.05M Tris.HCl, 0.1M NaCl, 0.1M CaCl2, 0.0005% brij-35, pH 7.5). The enzymatic reaction was started by addition of the enzyme and incubated at 25° C. for 30 minutes. After incubation, the reaction was stopped by addition of soybean trypsin inhibitor (Sigma T9003) at a final concentration of 50 μg/well. Fluorescence was measured using a Molecular Devices fluorescence plate reader using 380 nm excitation and 460 nm emission wavelengths.
A dose response to each compound was performed and the effect of compound in each experiment was expressed as a percentage inhibition of the control enzyme fluorescence. Dose response curves were plotted and compound potency (IC50) was determined. Compounds were tested in at least two separate experiments.

Row | Compound | IC50 [nM]
1 | Cc1c(-c2ccnn2-c2ccc(C#N)cc2)cn2nc(NC(=O)CN3CCS(=O)(=O)CC3)nc2c1-c1cccc(C(F)(F)F)c1 [Example 21, N-[6-[1-(4-Cyano-phenyl)-1H-pyrazol-5-yl]-7-methyl-8-(3-trifluoromethyl-phenyl)-[1,2,4]triazolo[1,5-a]pyridin-2-yl]-2-(1,1-dioxothiomorpholin-4-yl)-acetamide] | < 20
2 | Cc1c(-c2ccnn2-c2ccc(C#N)cc2)cn2nc(NC(=O)CN3CCOCC3)nc2c1-c1cccc(C(F)(F)F)c1 [Example 20, N-[6-[2-(4-Cyano-phenyl)-2H-pyrazol-3-yl]-7-methyl-8-(3-trifluoromethyl-phenyl)-[1,2,4]triazolo[1,5-a]pyridin-2-yl]-2-morpholin-4-yl-acetamide] | < 20
3 | Cc1c(-c2ccnn2-c2ccc(C#N)cc2S(C)(=O)=O)cn2nc(N)nc2c1-c1cccc(C(F)(F)F)c1 [Example 40, 4-{5-[2-Amino-7-methyl-8-(3-trifluoromethyl-phenyl)-[1,2,4]triazolo[1,5-a]pyridin-6-yl]pyrazol-1-yl}-3-methanesulfonyl-benzonitrile] | < 20
4 | Cc1c(-c2ccnn2-c2ccc(C#N)cc2)cn2nc(NC(=O)CCS(C)(=O)=O)nc2c1-c1cccc(C(F)(F)F)c1 [Example 46, N-[6-[2-(4-Cyano-phenyl)-2H-pyrazol-3-yl]-7-methyl-8-(3-trifluoromethyl-phenyl)-[1,2,4]triazolo[1,5-a]pyridin-2-yl]-3-methanesulfonyl-propionamide] | < 20
5 | CCOC(=O)Nc1nc2c(-c3cccc(C(F)(F)F)c3)c(C)c(-c3ccnn3-c3ccc(C#N)cc3)cn2n1 [Example 35, [6-[2-(4-Cyano-phenyl)-2H-pyrazol-3-yl]-7-methyl-8-(3-trifluoromethyl-phenyl)-[1,2,4]triazolo[1,5-a]pyridin-2-yl]-carbamic acid ethyl ester] | < 20
6 | CNC(=O)Cn1nc2c(-c3cccc(C(F)(F)F)c3)c(C)c(-c3ccnn3-c3ccc(C#N)cc3)cn2c1=O [Example 12, 2-[6-[2-(4-Cyano-phenyl)-2H-pyrazol-3-yl]-7-methyl-3-oxo-8-(3-trifluoromethyl-phenyl)-[1,2,4]triazolo[4,3-a]pyridin-2-yl]-N-methyl-acetamide] | 100 to 500
7 | CC(=O)Nc1nc2c(-c3cccc(C(F)(F)F)c3)c(C)c(-c3c(C)cnn3-c3ccc(C#N)cc3)cn2n1 [Example 42, N-[6-[2-(4-Cyano-phenyl)-4-methyl-2H-pyrazol-3-yl]-7-methyl-8-(3-trifluoromethyl-phenyl)-[1,2,4]triazolo[1,5-a]pyridin-2-yl]-acetamide] | < 20
8 | Cc1c(-c2ccnn2-c2ccc(C#N)cc2)cn2c(=O)n(Cc3ccc(S(C)(=O)=O)cc3)nc2c1-c1cccc(C(F)(F)F)c1 [Example 10, 4-{5-[2-(4-Methanesulfonyl-benzyl)-7-methyl-3-oxo-8-(3-trifluoromethyl-phenyl)-2,3-dihydro-[1,2,4]triazolo[4,3-a]pyridin-6-yl]-pyrazol-1-yl}-benzonitrile] | 100 to 500
9 | Cc1c(-c2ccnn2-c2ccc(C#N)cc2)cn2nc(NCCCCN(C)C)nc2c1-c1cccc(C(F)(F)F)c1 [Example 30, 4-{5-[2-(4-Dimethylamino-butylamino)-7-methyl-8-(3-trifluoromethyl-phenyl)-[1,2,4]triazolo[1,5-a]pyridin-6-yl]-pyrazol-1-yl}-benzonitrile] | < 20
10 | Cc1c(-c2ccnn2-c2ccc(C#N)cc2)cn2nc(NCCCO)nc2c1-c1cccc(C(F)(F)F)c1 [Example 53, 4-{5-[2-(3-Hydroxy-propylamino)-7-methyl-8-(3-trifluoromethyl-phenyl)-[1,2,4]triazolo[1,5-a]pyridin-6-yl]-pyrazol-1-yl}-benzonitrile] | < 20
11 | Cc1c(-c2ccnn2-c2ccc(C#N)cc2)cn2nc(NCCCCO)nc2c1-c1cccc(C(F)(F)F)c1 [Example 54, 4-{5-[2-(4-Hydroxy-butylamino)-7-methyl-8-(3-trifluoromethyl-phenyl)-[1,2,4]triazolo[1,5-a]pyridin-6-yl]-pyrazol-1-yl}-benzonitrile] | < 20
12 | Cc1c(-c2ccnn2-c2ccc(C#N)cc2)cn2nc(NC(=O)CCC(=O)O)nc2c1-c1cccc(C(F)(F)F)c1 [Example 55, N-[6-[2-(4-Cyano-phenyl)-2H-pyrazol-3-yl]-7-methyl-8-(3-trifluoromethyl-phenyl)-[1,2,4]triazolo[1,5-a]pyridin-2-yl]-succinamic acid] | < 20
13 | Cc1c(-c2ccnn2-c2ccc(C#N)cc2)cn2nc(NCCCC(=O)N(C)CCN(C)C)nc2c1-c1cccc(C(F)(F)F)c1 [Example 60, 4-[6-[2-(4-Cyano-phenyl)-2H-pyrazol-3-yl]-7-methyl-8-(3-trifluoromethyl-phenyl)-[1,2,4]triazolo[1,5-a]pyridin-2-ylamino]-N-(2-dimethylamino-ethyl)-N-methyl-butyramide formate salt] | < 20
14 | Cc1c(-c2ccnn2-c2ccc(C#N)cc2)cn2ccnc2c1-c1cccc(C(F)(F)F)c1 [Example 6, 4-{5-[7-Methyl-8-(3-trifluoromethyl-phenyl)-imidazo[1,2-a]pyridin-6-yl]-pyrazol-1-yl}-benzonitrile] | 20 to 100
